Laboratory results reported in article PMC7948948 (The Journal of Biological Chemistry, 2021).
Converted amounts (≈) assume the structure as drawn.

System: Mtb pheS–FDAS
Assay type: cell-based, Mycobacterium tuberculosis

O=C(Nc1cccnc1)N1CCC(Cc2cccc(Oc3ccc(C(F)(F)F)cn3)c2)CC1 [PF-3845]
MIC, pheS–FDAS mutant: 40 µM (≈ 18.3 µg/mL)
